Like-named read-outs stand apart in the source and are kept apart here. Strand notation (5' to 3'): a small letter for the sugar, then the base; units joined by * are phosphorothioate-linked, units joined directly phosphodiester-linked; [ ] holds rarer units or linkages, { } end groups; capitals alone tell only the bases. r = 2'-OH (RNA)
What was measured:
[1] = target: T1, recombinant HIV-1 RT K103N/E478Q (Human immunodeficiency virus type 1 group M subtype B, UniProt P03366, E1077Q/K702N); format: biochemical; settings: second strand DNA synthesis, preincubation 30 minutes at 33° C., 3 hours, read-out: IC50 of indicated inhibitor in DNAp assay
T1 construct: performed by recombinant HIV-1 RT:s with defined
Text: (§1) The flourimetric DNA-polymerase assay used is available from Cavidi Tech AB, Uppsala, Sweden. It is based on a short DNA primer analogous to a part of the tRNA^Lys3 sequence. The template is a single stranded deoxynucleotide template with part of the sequence complementary to the primer. The enzyme reaction is dependent on all four deoxynucleotide bases. The thymidine triphosphate is, however, replaced by BrdUTP. The amount of BrdUMP incorporated into DNA during the polymerase reaction is detected with an alkaline phosphatase (Ap) conjugated anti-BrdU monoclonal antibody. An Ap substrate, 4-methylumbelliferyl phosphate, is finally used for fluorimetric product detection.
(§2) (ii) Protocol for determination of inhibition of second strand synthesis on a variable DNA template: The inhibition studies were performed in a modified DNA polymerase assay. The inhibitors were serially diluted in five steps, enzyme dilution was added and the enzyme/inhibitor mixtures were incubated for 30 minutes at 33° C. The enzyme reaction was initiated by addition of 75 μl aliquots of the enzyme/inhibitor mixture to each well of a microtiter plate containing 75 μl DNA polymerase reaction mixture per well. The polymerase reaction was allowed to proceed for 3 hours at 33° C. whereupon the reaction was terminated by a wash of the plate. […] The amount of RT used was standardised to an activity corresponding to 40-60 pg (3.3-5.0×10^−16 mol) reference HIV-1 RT per well.
(§3) The capacity of the indicated substances to inhibit each enzyme in a panel of recombinant HIV 1 subtype B RTs was studied according to “Protocol for determination of inhibition of second strand synthesis on variable DNA template” (protocol (ii) above).

[2] = target: T2, recombinant HIV-1 RT L100I (Human immunodeficiency virus type 1 group M subtype B, UniProt P03366, L699I); format: biochemical; settings: second strand DNA synthesis, preincubation 30 minutes at 33° C., 3 hours, read-out: IC50 of indicated inhibitor in DNAp assay
T2 construct: performed by recombinant HIV-1 RT:s with defined
Text: as §1, §2, §3

[3] = target: T3, recombinant HIV-1 RT E478Q (Human immunodeficiency virus type 1 group M subtype B, UniProt P03366, E1077Q); format: biochemical; settings: second strand DNA synthesis, preincubation 30 minutes at 33° C., 3 hours, read-out: IC50 of indicated inhibitor in DNAp assay
T3 construct: performed by recombinant HIV-1 RT:s with defined
Text: as §1, §2, §3

[4] = target: recombinant HIV-1 RT, ref RT (HIV type B, clone BH 10) (Human immunodeficiency virus type 1 group M subtype B, UniProt P03366); experiment: RT assay: inhibition of RNA dependent DNA polymerisation (modified Lenti RT assay); format: biochemical; parameters: performed by recombinant HIV-1 RT:s with defined; settings: enzyme/inhibitor preincubated 30 minutes at 33° C., BrdUTP 0.35 μM, odT22 0.03 ng per well, 3 hours, read-out: IC50 of indicated inhibitor in RT assay
Description: (§4) The flourimetric RT assay (Cavidi® Lenti RT activity kit), available from Cavidi Tech, Uppsala, Sweden, was used for the determination of RT activity. In short, poly(rA) covalently bound to the wells of a 96 well microtiter plate serves as template for the incorporation of 5-bromodeoxyuridine 5′-triphosphate (BrdUTP) during the reverse transcription step at 33° C. The amount of bromodeoxyuridine monophosphate (BrdUMP) incorporated into DNA is detected with an alkaline phosphatase (Ap) conjugated, anti-BrdU monoclonal antibody. An Ap substrate, 4-methylumbelliferyl phosphate, is finally used for fluorimetric product detection.
(i) Protocol for determination of inhibition of RNA dependent DNA polymerisation: The inhibition studies were performed in a modified Lenti RT assay. The inhibitors were serially diluted in five steps, whereupon enzyme dilution was added and the enzyme/inhibitor mixtures were incubated for 30 minutes at 33° C. The enzyme reaction was initiated by addition of 100 μl aliquots of the enzyme/inhibitor mixture to each well of a microtiter plate containing 100 μl RT reaction mixture per well. The polymerase reaction was allowed to proceed for 3 hours at 33° C., whereupon the reaction was terminated by a wash of the plate. […] The amount of RT used was standardised to an activity corresponding to 90-130 pg (7-10×10^−16 mol) reference HIV-1 RT per well […]

[5] = system: panel of recombinant HIV 1 subtype B RTs; experiment: RT binding inhibition (BIC) assay, whole RT panel; settings: all conditions studied
Description: (§5) (iii) Protocol for RT binding inhibition (BIC) assay: The study was performed in a modified DNA polymerase assay. The inhibitors were serially diluted in five steps, enzyme dilution was added and the enzyme/inhibitor mixtures were incubated for 30 minutes at 33° C. Aliquots of the enzyme/inhibitor mixture were transferred to each well of a microtiter plate containing either immobilised primer, or primer/template. The enzyme was allowed to bind to the immobilised polymer for 90 min at 33° C. The amount of RT used was standardised to an activity corresponding to 40-60 pg (3.3-5.0×10^−16 mol) reference HIV-1 RT per well. The plates were then washed to remove unbound enzyme whereupon the amount of bound enzyme was determined by addition of the appropriate reaction solution for polymerisation (i e a reaction solution devoid of primer for studies of primer binding and a reaction solution devoid of both primer and template for studies of binding to primed template). The polymerase reaction was allowed to proceed for 3 hours at 33° C., whereupon the reaction was terminated by a wash of the plate.
(§6) The capacity of the indicated substances to inhibit the binding to primer or to primed DNA template of a panel of recombinant HIV 1 subtype B RTs was studied according to “Protocol for RT binding inhibition (BIC) assay” (protocol (iii) above).

[6] = system: panel of recombinant HIV 1 subtype B RTs; experiment: RT assay: inhibition of RNA dependent DNA polymerisation, whole RT panel; format: biochemical; settings: for IC50: all RTs of the panel, summary of table 1, read-out: IC50, range over all RTs studied (reverse transcription)
Description: as §4
(i) Protocol for determination of inhibition of RNA dependent DNA polymerisation: The inhibition studies were performed in a modified Lenti RT assay. […]
The final nucleotide substrate (BrdUTP) concentration was 0.35 μM, and the primer (odT22) amount was 0.03 ng per well.

[7] = target: T2, recombinant HIV-1 RT L100I; settings: binding 90 min at 33° C.
Description: as §5, §6

[8] = target: T3, recombinant HIV-1 RT E478Q; settings: binding 90 min at 33° C.
Description: as §5, §6

[9] = immobilised primer, read-out: Inhibition of binding to primer (BIC50)
[10] = immobilised primer/template, read-out: Inhibition of binding to template/primer (BIC50)

Substance | IC50 [1] [nM] | IC50 [2] [nM] | IC50 [3] [nM] | IC50 [4] [nM] | Capacity to prevent RT binding to primer or primed template [5] | IC50 [6] [nM] | IC50 [7, 9] [nM] | IC50 [7, 10] [nM] | IC50 [8, 9] [nM] | IC50 [8, 10] [nM] | Results with inhibitor added directly to the RT reaction mixture compared with the standard procedure ([6]; alternative procedure without pre-incubation)
substance 198: 15-mer RNA phosphorothioate with the base sequence of tRNALys3 anticodon stem and loop, SEQ ID NO:7 (rC*rA*rG*rA*rC*rU*rU*rU*rU*rA*rA*rU*rC*rU*rG) [reference compound] | 1000 | 220 | 1000 | 470 | significantly less capacity to prevent RT binding | 340 to 1100 | > 1000 | > 1000 | > 1000 | > 1000 | –
substance 199: 35-mer RNA molecule having the sequence set out in SEQ ID NO:5; similar to SEQ ID NO:4 with some naturally occurring nucleotide derivatives (GCUCAGNCGGNAGAGCANCAGACUUUUAANCUGAN; RNA, backbone, methylation of C and the base at N not given here; naturally occurring modified nucleosides at n positions) | 51 | 36 | 34 | 6.6 | had the capacity to prevent RT binding to either primer alone or to primed template | 6 to 12 | 7 | – | 7 | 14 | not significantly different

From patent US20040053872A1, “New sequences” (priority 2000, published 2004)
